This is an account of results in patent US4762828A, “1,2,4-triazolo[4,3-d]-4-azatricyclo-[4.3.1.1^3,8 ]undecane and 3-substituted derivatives, and intermediates thereof” (Pennwalt Corporation, priority 1987, dated 1988).

Data set [1] deals with carrageenan-induced rat paw edema. Description: carrageenan-induced rat paw edema assay (anti-inflammatory activity). It counts as in vivo, male Sprague Dawley rats. As to conditions: for % Inhibition: oral, control 63.9% edema; for anti-inflammatory activity (in words): administered orally. How it is done:
Anti-inflamatory activity was determined by carragenaninduced paw edema of laboratory rats. Groups of six male Sprague Dawley rats orally received compound suspended in a 1% aqueous solution of Methocel brand methylcellulose. Control rats received a 0.5% aqueous solution of Methocel only. Two hours later, each rat received a subcutaneous injection of 0.1 ml of a 1% homogenized suspension of carrageenan in the plantar surface of the right hind paw.
Immediately, the volume of the paw was measured by immersing it in mercury to above the lateral mateolus. The mercury in a glass cylinder 25 mm in diameter and 60 mm deep was connected at the bottom on the cylinder by a column of water to a Statham transducer (model P23BB), range 0-5 cm of mercury pressure. The volume was recorded electronically on a Beckman recorder, R511. Three hours later, the inflamed paw volume was measured again, and the change in volume was recorded for each group. Indomethacin,a known anti-inflamatory agent, was included as a standard.
A general note: The carrageenan paw model is a standard test of acute inflammation.

Data set [2] deals with mice. Put plainly: antihypoxia test: survival duration of mice in a normobaric atmosphere of 96% nitrogen and 4% oxygen at 35° C. It counts as in vivo. As to conditions: for Survival Minutes, Compound: N=5, 35° C. How it is done: N^1 = Number of mice in each group
NS = Not significant, P >0.05
ip = intraperitoneal administration
iv = intravenous administration
The antihypoxia test measures the survival duration of mice in a normobaric atmosphere consisting of 96% nitrogen and 4% oxygen, at 35° C. The mice are considered dead when they stop visible respiration. The test indicates potential clinical utility in situations of central nervous system hypoxia, such as occurs following stroke, cardiac arrest, and traumatic accidents.

A further data set can be described thus: minimal neurotoxic dose. Set-up: species or system mice. To be noted: mouse, in vivo, ip.
The test system of data set [3] is mice. Description: estimated LD50. As to conditions: ip.

As for `c1nnc2n1C1CC3CC(CC2C3)C1` [Example 1, 1,2,4-Triazolo[4,3-d]-4-azatricyclo[4.3.1.1^3,8]undecane Hydroiodide], the “% Inhibition” value in data set [1] (25.0 mg/kg) came to 17.0%; in data set [1] (50.0 mg/kg, Hydroiodide), 43.4%; in data set [1] (100.0 mg/kg), 56.6%. For the same compound, the “anti-inflammatory activity (in words)” value in data set [1] is reported as “demonstrated activity”.
In the case of `c1nnc2n1C1CC3CC(CC2C3)C1` [Example 2, 1,2,4-Triazolo[4,3-d]-4-azatricyclo[4.3.1.1^3,8]undecane], the “Survival Minutes, Compound” value came out at 2.34 min in the data set on mice [2] (1 mg/kg iv, control 2.36, P NS); 3.02 min with mice [2] (1.5 mg/kg iv, control 2.30, P NS); 5.78 min in the data set on mice [2] (6 mg/kg ip, control 2.08, P =0.04). The “prolonged the survival time of mice in the antihypoxia test” value in the data set on mice [2] (6 mg/kg (i.p.)) is listed as “more than 2 fold”. In “minimal neurotoxic dose”, this compound displayed a minimal neurotoxic dose of 6 mg/kg. For the same compound, the “% Inhibition” value came to 17.0% in data set [1] (25.0 mg/kg) and 28.3% in data set [1] (50.0 mg/kg). The “anti-inflammatory activity (in words)” value in data set [1] is on record as “demonstrated activity”. For the same compound, in the data set with mice [3], the “Estimated LD50” value is on record as 12 mg/kg.
With `COc1ccc2c(c1)c(CC(=O)O)c(C)n2C(=O)c1ccc(Cl)cc1` [Indomethacin, reference compound], the “% Inhibition” value in data set [1] (4.0 mg/kg) was 52.8%.

By % Inhibition is commonly meant the relative decrease from the control value, in per cent. A lower % Inhibition goes with a response near the control.
